Test results taken from PubChem BioAssay (NCI).
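Cells were grown in 96-well plates and exposed to each compound for 48 hours at five concentrations; endpoints were interpolated linearly between bracketing concentrations, or set to the highest concentration if not reached. TGI: concentration producing complete growth inhibition.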

Assays:
Assay in all cases: NCI tumour cell line growth inhibition, 48 h
[1] = test system: HCT-15 colon
[2] = test system: UACC-257 melanoma
[3] = test system: KM20L2 colon
[4] = test system: HT29 colon
[5] = test system: RXF 393 renal
[6] = test system: CCRF-CEM leukemia
[7] = test system: SF-268 CNS
[8] = test system: COLO 205 colon
[9] = test system: SNB-19 CNS
[10] = test system: SNB-75 CNS
[11] = test system: A498 renal
[12] = test system: HOP-62 NSCLC
[13] = test system: TK-10 renal
[14] = test system: UACC-62 melanoma
[15] = test system: HCT-116 colon
[16] = test system: OVCAR-4 ovarian
[17] = test system: NCI-H226 lung
[18] = test system: NCI-H522 lung
[19] = test system: SK-MEL-28 melanoma
[20] = test system: 786-0 renal
[21] = test system: DMS 114 small cell lung
[22] = test system: IGROV1 ovarian
[23] = test system: EKVX NSCLC
[24] = test system: K-562 leukemia
[25] = test system: LOX IMVI melanoma
[26] = test system: M14 melanoma
[27] = test system: DMS 273 small cell lung
[28] = test system: SNB-78 CNS
[29] = test system: RPMI-8226 leukemia
[30] = test system: KM12 colon
[31] = test system: HL-60(TB) leukemia
[32] = test system: NCI-H23 lung
[33] = test system: CAKI-1 renal
[34] = test system: SK-MEL-2 melanoma
[35] = test system: A549 NSCLC
[36] = test system: SF-539 CNS
[37] = test system: SN12C renal
[38] = test system: SW-620 colon
[39] = test system: OVCAR-5 ovarian
[40] = test system: LXFL 529 NSCLC
[41] = test system: MOLT-4 leukemia
[42] = test system: SR leukemia
[43] = test system: OVCAR-3 ovarian
[44] = test system: OVCAR-8 ovarian
[45] = test system: NCI-H460 lung
[46] = test system: UO-31 renal
[47] = test system: DLD-1 colon
[48] = test system: SF-295 CNS
[49] = test system: U251 CNS
[50] = test system: HCC-2998 colon
[51] = test system: ACHN renal
[52] = test system: MDA-N
[53] = test system: PC-3 prostate
[54] = test system: DU-145 prostate
[55] = test system: MDA-MB-231 breast
[56] = test system: BT-549 breast
[57] = test system: T-47D breast
[58] = test system: NCI/ADR-RES ovarian
[59] = test system: HS 578T breast
[60] = test system: MALME-3M melanoma
[61] = test system: MDA-MB-435
[62] = test system: SK-OV-3 ovarian
[63] = test system: SK-MEL-5 melanoma
[64] = test system: MCF7 breast
[65] = test system: HOP-92 NSCLC

With `C=C1c2[nH]c3c([N+](=O)[O-])c(OC)ccc3c2CCN1C(C)=O` the TGI [1] was > 100 µM, the TGI [2] was > 100 µM and the TGI [3] was > 100 µM. The TGI [4] was > 100 µM, the TGI [5] was > 100 µM and the TGI [6] was > 100 µM. For the same compound, the TGI [7] was > 100 µM, the TGI [8] was > 100 µM and the TGI [9] was > 100 µM. The TGI [10] was 42.5 µM, the TGI [11] was > 100 µM and the TGI [12] was > 100 µM. For the same compound, the TGI [13] was > 100 µM, the TGI [14] was > 100 µM and the TGI [15] was > 100 µM. The TGI [16] was > 100 µM, the TGI [17] was > 100 µM and the TGI [18] was > 100 µM. The TGI [19] was > 100 µM, the TGI [20] was > 100 µM and the TGI [21] was > 100 µM. The TGI [22] was > 100 µM, the TGI [23] was > 100 µM and the TGI [24] was > 100 µM. The TGI [25] was > 100 µM, the TGI [26] was > 100 µM and the TGI [27] was > 100 µM. The TGI [28] was > 100 µM, the TGI [29] was > 100 µM and the TGI [30] was > 100 µM. The TGI [31] was > 100 µM, the TGI [32] was > 100 µM and the TGI [33] was > 100 µM. The TGI [34] was > 100 µM, the TGI [35] was > 100 µM and the TGI [36] was > 100 µM. For the same compound, the TGI [37] was > 100 µM, the TGI [38] was > 100 µM and the TGI [39] was > 100 µM. For the same compound, the TGI [40] was > 100 µM, the TGI [41] was > 100 µM and the TGI [42] was > 100 µM. For the same compound, the TGI [43] was > 100 µM, the TGI [44] was > 100 µM and the TGI [45] was > 100 µM. For the same compound, the TGI [46] was > 100 µM, the TGI [47] was 38.4 µM and the TGI [48] was > 100 µM. The TGI [49] was > 100 µM, the TGI [50] was > 100 µM and the TGI [51] was > 100 µM.

With `CSC1=N/C(=C\c2ccco2)C(=O)N1CN1CCOCC1` the TGI [1] was > 100 µM, the TGI [2] was > 100 µM and the TGI [4] was > 100 µM. The TGI [5] was 44.6 µM, the TGI [6] was > 90.3 µM and the TGI [7] was > 78.3 µM. For the same compound, the TGI [52] was > 100 µM, the TGI [8] was > 100 µM and the TGI [9] was > 100 µM. The TGI [10] was > 100 µM, the TGI [11] was > 100 µM and the TGI [53] was > 100 µM. The TGI [12] was > 100 µM, the TGI [13] was > 100 µM and the TGI [14] was > 100 µM. For the same compound, the TGI [15] was > 66.9 µM, the TGI [16] was > 100 µM and the TGI [17] was > 100 µM. For the same compound, the TGI [18] was > 100 µM, the TGI [19] was > 100 µM and the TGI [20] was > 100 µM. The TGI [22] was > 100 µM, the TGI [23] was > 100 µM and the TGI [54] was > 100 µM. The TGI [24] was > 100 µM, the TGI [55] was > 100 µM and the TGI [25] was > 100 µM. The TGI [26] was > 100 µM, the TGI [29] was > 80.4 µM and the TGI [30] was > 100 µM. The TGI [32] was > 100 µM, the TGI [33] was > 100 µM and the TGI [34] was > 100 µM. The TGI [35] was > 100 µM, the TGI [36] was 35.3 µM and the TGI [37] was > 88.7 µM. For the same compound, the TGI [38] was > 95.4 µM, the TGI [39] was > 100 µM and the TGI [41] was > 96.2 µM. The TGI [56] was 41.2 µM, the TGI [42] was > 92.6 µM and the TGI [57] was > 100 µM. The TGI [58] was > 100 µM, the TGI [43] was > 100 µM and the TGI [44] was > 100 µM. The TGI [59] was > 100 µM, the TGI [45] was 27.7 µM and the TGI [60] was > 80.7 µM. For the same compound, the TGI [61] was > 100 µM, the TGI [62] was > 100 µM and the TGI [46] was > 100 µM. The TGI [48] was > 100 µM, the TGI [63] was > 80.3 µM and the TGI [64] was > 100 µM. The TGI [49] was > 100 µM, the TGI [50] was 97 µM and the TGI [51] was > 89.4 µM.

Compound `CC(C)C(OC(=O)c1ccc(NCc2cc(O)ccc2O)cc1)C(C)C` has a TGI [1] of 1.77 µM, a TGI [2] of 3.83 µM and a TGI [4] of 16.6 µM. It also gave a TGI [5] of 1.65 µM, a TGI [6] of 0.589 µM and a TGI [7] of 5.3 µM. It also gave a TGI [52] of 12.9 µM, a TGI [8] of 5.56 µM and a TGI [9] of 7.06 µM. It also gave a TGI [10] of 3.7 µM, a TGI [11] of 9.58 µM and a TGI [53] of 3.96 µM. The TGI [12] was 21.7 µM, the TGI [13] was 3.62 µM and the TGI [14] was 3.27 µM. For the same compound, the TGI [15] was 14 µM, the TGI [16] was 4.33 µM and the TGI [17] was 5.47 µM. It also gave a TGI [18] of 0.391 µM, a TGI [19] of 3.23 µM and a TGI [20] of 2.42 µM. For the same compound, the TGI [22] was 2.35 µM, the TGI [23] was 5.32 µM and the TGI [54] was 20.9 µM. The TGI [24] was 4.12 µM, the TGI [55] was 9.15 µM and the TGI [25] was 2.31 µM. The TGI [26] was 6.93 µM, the TGI [29] was 0.931 µM and the TGI [30] was 11.1 µM. For the same compound, the TGI [31] was 0.484 µM, the TGI [32] was 6.56 µM and the TGI [33] was 0.701 µM. The TGI [34] was 6.68 µM, the TGI [35] was 20.7 µM and the TGI [36] was 2.47 µM. The TGI [65] was 1.36 µM, the TGI [37] was 11.9 µM and the TGI [38] was 7.95 µM. It also gave a TGI [39] of 6.16 µM, a TGI [41] of 0.956 µM and a TGI [56] of 2.23 µM. It also gave a TGI [42] of 2.43 µM, a TGI [57] of 3.4 µM and a TGI [58] of 6.14 µM. It also gave a TGI [43] of 4.37 µM, a TGI [44] of 3.77 µM and a TGI [59] of 8.09 µM. The TGI [45] was 14.7 µM, the TGI [60] was 3.3 µM and the TGI [61] was 5.59 µM. The TGI [46] was 2.42 µM, the TGI [48] was 15.4 µM and the TGI [63] was 7.45 µM. It also gave a TGI [64] of 16.4 µM, a TGI [49] of 2.85 µM and a TGI [50] of 10.2 µM. For the same compound, the TGI [51] was 2.33 µM.
